{"source": "patent US11827657B2", "about": "“Boron containing pyrazole compounds, compositions comprising them, methods and uses thereof” (BOEHRINGER INGELHEIM ANIMAL HEALTH USA INC., priority 2020, dated 2023)", "data": [{"target": "JAK1 (Homo sapiens, UniProt P23458)", "sequence (P23458 whole entry, species assumed)": "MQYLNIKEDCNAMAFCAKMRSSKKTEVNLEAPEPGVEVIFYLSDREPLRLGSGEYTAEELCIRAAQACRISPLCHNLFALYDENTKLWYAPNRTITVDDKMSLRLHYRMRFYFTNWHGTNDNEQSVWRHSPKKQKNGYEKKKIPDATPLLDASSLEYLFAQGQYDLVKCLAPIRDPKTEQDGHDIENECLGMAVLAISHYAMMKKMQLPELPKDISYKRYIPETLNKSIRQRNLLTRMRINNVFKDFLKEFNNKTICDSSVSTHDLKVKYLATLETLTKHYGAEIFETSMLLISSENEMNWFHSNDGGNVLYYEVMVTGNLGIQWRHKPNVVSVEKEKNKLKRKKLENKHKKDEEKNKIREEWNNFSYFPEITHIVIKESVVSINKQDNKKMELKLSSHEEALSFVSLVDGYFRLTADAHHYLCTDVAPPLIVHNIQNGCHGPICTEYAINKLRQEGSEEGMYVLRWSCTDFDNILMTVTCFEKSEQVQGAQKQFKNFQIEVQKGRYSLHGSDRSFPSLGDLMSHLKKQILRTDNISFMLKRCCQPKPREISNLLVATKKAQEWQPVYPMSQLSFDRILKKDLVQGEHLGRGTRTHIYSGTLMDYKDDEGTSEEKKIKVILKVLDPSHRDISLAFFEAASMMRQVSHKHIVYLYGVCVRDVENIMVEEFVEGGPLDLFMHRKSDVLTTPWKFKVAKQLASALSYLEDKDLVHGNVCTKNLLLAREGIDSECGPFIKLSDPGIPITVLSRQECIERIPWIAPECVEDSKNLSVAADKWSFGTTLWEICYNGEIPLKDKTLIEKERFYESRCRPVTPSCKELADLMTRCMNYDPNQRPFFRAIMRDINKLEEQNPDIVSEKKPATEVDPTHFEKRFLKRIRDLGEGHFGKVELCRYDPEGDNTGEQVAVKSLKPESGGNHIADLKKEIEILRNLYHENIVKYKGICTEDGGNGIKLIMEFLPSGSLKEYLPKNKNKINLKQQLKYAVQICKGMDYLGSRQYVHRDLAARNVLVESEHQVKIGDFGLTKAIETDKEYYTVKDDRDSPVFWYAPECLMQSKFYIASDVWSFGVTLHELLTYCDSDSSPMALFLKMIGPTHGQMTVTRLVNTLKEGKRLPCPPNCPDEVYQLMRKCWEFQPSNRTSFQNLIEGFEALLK", "assay": "Biochemical Kinase Assay (JAK), 33P-ATP filter-binding", "settings": "Biochemical Kinase Inhibition Assay; potency level of IC50; read-out: JAK1 (range)", "method": "Biochemical Kinase Assay Protocol (JAK) • Reagent: Base Reaction buffer; 20 mM Hepes (pH 7.5), 10 mM MgCl2, 1 mM EGTA, 0.02% Brij™ 35, 0.02 mg/ml BSA, 0.1 mM Na3VO4, 2 mM DTT, 1% DMSO, where required cofactors were added individually to each kinase reaction.\nReaction Procedure: • 1. Prepared indicated substrate in freshly prepared Base Reaction Buffer • 2. Delivered any required cofactors to the substrate solution above • 3. Delivered indicated kinase into the substrate solution and gently mix • 4. Delivered compounds in DMSO into the kinase reaction mixture by Acoustic technology (Echo550; nanoliter range), incubated for 20 minutes at room temperature • 5. Delivered 33P-ATP into the reaction mixture to initiate the reaction. • 6. Incubated kinase reaction for 2 hours at room temperature • 7. Reactions were spotted onto P81 ion exchange paper • 8. Detected kinase activity by filter-binding method.\nCompounds according to the present invention were tested in the Biochemical Kinase Assay Protocol. The results are provided below in Table 1, wherein the potency levels A, B, and C in the columns labeled JAK1 (range) correspond to IC50 as follows: A<10 nM; B=10-50 nM and C>50 nM. The Example Number entries formatted ##a represent stereoisomer one and entries formatted ##b represent stereoisomer two.", "units": {"IC50": "nM"}, "values": [{"smiles": "N#CC1CCOCC1n1cc(C(N)=O)c(Nc2cc(Cl)c3c(c2)C=CB(O)O3)n1", "note": "(stereo not drawn) [Example 13, 3-((8-chloro-2-hydroxy-2H-benzo[e][1,2]oxaborinin-6-yl)amino)-1-(trans-4-cyanotetrahydro-2H-pyran-3-yl)-1H-pyrazole-4-carboxamide]", "IC50": "< 10"}, {"smiles": "N#C[C@@H]1CCOC[C@H]1n1cc(C(N)=O)c(Nc2cc(F)c3c(c2)COB3O)n1", "note": "(single isomer, unassigned) [Example 38b, 1-[trans-4-cyanotetrahydropyran-3-yl]-3-[(7-fluoro-1-hydroxy-3H-2,1-benzoxaborol-5-yl)amino]pyrazole-4-carboxamide]", "IC50": "< 10"}, {"smiles": "CC(C)C1=Cc2cc(Nc3nn([C@@H]4COCC[C@H]4C#N)cc3C(N)=O)ccc2OB1O", "note": "(single isomer, unassigned) [Example 48b, 1-(trans-4-cyanotetrahydro-2H-pyran-3-yl)-3-((2-hydroxy-3-isopropyl-2H-benzo[e][1,2]oxaborinin-6-yl)amino)-1H-pyrazole-4-carboxamide]", "IC50": "< 10"}, {"smiles": "Cc1cc(Nc2nn(C3COCCC3C#N)cc2C(N)=O)cc2c1B(O)OC2", "note": "(single isomer, unassigned) [Example 6b, 1-[trans-4-cyanotetrahydropyran-3-yl]-3-[(1-hydroxy-7-methyl-3H-2,1-benzoxaborol-5-yl)amino]pyrazole-4-carboxamide (stereoisomer two)]", "IC50": "10 to 50"}, {"smiles": "CC(C)(C)C1=Cc2cc(Nc3nn([C@@H]4CCC[C@H]4C#N)cc3C(N)=O)ccc2OB1O", "note": "(relative stereo) [Example 20, 3-[(3-tert-butyl-2-hydroxy-1,2-benzoxaborinin-6-yl)amino]-1-(trans-2-cyanocyclopentyl)pyrazole-4-carboxamide]", "IC50": "10 to 50"}, {"smiles": "N#C[C@@H]1CCOC[C@H]1n1cc(C(N)=O)c(Nc2ccc3c(c2)C(Cl)=CB(O)O3)n1", "note": "(single isomer, unassigned) [Example 43a, 3-[(4-chloro-2-hydroxy-1,2-benzoxaborinin-6-yl)amino]-1-[trans-4-cyanotetrahydro-2H-pyran-3-yl]pyrazole-4-carboxamide]", "IC50": "< 10"}, {"smiles": "N#C[C@@H]1CCC[C@H]1n1cc(C(N)=O)c(Nc2ccc3c(c2)COB3O)n1", "note": "(relative stereo) [Example 12, 1-(trans-2-cyanocyclopentyl)-3-((1-hydroxy-1,3-dihydrobenzo[c][1,2]oxaborol-5-yl)amino)-1H-pyrazole-4-carboxamide]", "IC50": "< 10"}, {"smiles": "CC1(C)OB(O)c2cc(Nc3nn([C@@H]4COCC[C@H]4C#N)cc3C(N)=O)ccc21", "note": "(single isomer, unassigned) [Example 36b, 1-[trans-4-cyanotetrahydro-2H-pyran-3-yl]-3-[(1-hydroxy-3,3-dimethyl-2,1-benzoxaborol-6-yl)amino]pyrazole-4-carboxamide]", "IC50": "< 10"}, {"smiles": "Cc1c(Nc2nn([C@@H]3COCC[C@H]3C#N)cc2C(N)=O)ccc2c1C=CB(O)O2", "note": "(single isomer, unassigned) [Example 17b, 1-[trans-4-cyanotetrahydropyran-3-yl]-3-[(2-hydroxy-5-methyl-1,2-benzoxaborinin-6-yl)amino]pyrazole-4-carboxamide]", "IC50": "> 50"}, {"smiles": "CC1=CB(O)Oc2c(C)cc(Nc3nn([C@@H]4COCC[C@H]4C#N)cc3C(N)=O)cc21", "note": "(single isomer, unassigned) [Example 47a, 1-[trans-4-cyanotetrahydro-2H-pyran-3-yl]-3-[(2-hydroxy-4,8-dimethyl-1,2-benzoxaborinin-6-yl)amino]pyrazole-4-carboxamide]", "IC50": "< 10"}, {"smiles": "CC1=CB(O)Oc2ccc(Nc3nn(C4COCCC4C#N)cc3C(N)=O)cc21", "note": "(single isomer, unassigned) [Example 3b, 1-[trans-4-cyanotetrahydropyran-3-yl]-3-[(2-hydroxy-4-methyl-1,2-benzoxaborinin-6-yl)amino]pyrazole-4-carboxamide (stereoisomer two)]", "IC50": "10 to 50"}, {"smiles": "N#C[C@@H]1CCOC[C@H]1n1cc(C(N)=O)c(Nc2ccc3c(c2)B(O)OC3)n1", "note": "(single isomer, unassigned) [Example 16b, 1-(trans-4-cyanotetrahydro-2H-pyran-3-yl)-3-((1-hydroxy-1,3-dihydrobenzo[c][1,2]oxaborol-6-yl)amino)-1H-pyrazole-4-carboxamide]", "IC50": "< 10"}, {"smiles": "N#C[C@@H]1CCOC[C@H]1n1cc(C(N)=O)c(Nc2ccc3c(c2)B(O)OCC3)n1", "note": "(single isomer, unassigned) [Example 42a, 1-[trans-4-cyanotetrahydro-2H-pyran-3-yl]-3-[(1-hydroxy-3,4-dihydro-2,1-benzoxaborinin-7-yl)amino]pyrazole-4-carboxamide]", "IC50": "< 10"}, {"smiles": "N#C[C@@H]1CCOC[C@H]1n1cc(C(N)=O)c(Nc2ccc3c(c2F)C=CB(O)O3)n1", "note": "(relative stereo) [Example 54, 1-(trans-4-cyanotetrahydro-2H-pyran-3-yl)-3-[(5-fluoro-2-hydroxy-1,2-benzoxaborinin-6-yl)amino]pyrazole-4-carboxamide]", "IC50": "10 to 50"}, {"smiles": "N#CC1CCOCC1n1cc(C(N)=O)c(Nc2ccc3c(c2)C(Cl)=CB(O)O3)n1", "note": "(stereo not drawn) [Example 43, 3-[(4-chloro-2-hydroxy-1,2-benzoxaborinin-6-yl)amino]-1-[trans-4-cyanotetrahydro-2H-pyran-3-yl]pyrazole-4-carboxamide]", "IC50": "< 10"}, {"smiles": "CC(C)C1=CB(O)Oc2ccc(Nc3nn([C@@H]4CCC[C@H]4C#N)cc3C(N)=O)cc21", "note": "(relative stereo) [Example 35, 1-(trans-2-cyanocyclopentyl)-3-[(2-hydroxy-4-isopropyl-1,2-benzoxaborinin-6-yl)amino]pyrazole-4-carboxamide]", "IC50": "10 to 50"}, {"smiles": "N#C[C@@H]1CCOC[C@H]1n1cc(C(N)=O)c(Nc2cc(Cl)c3c(c2)COB3O)n1", "note": "(single isomer, unassigned) [Example 52a, 3-((7-chloro-1-hydroxy-1,3-dihydrobenzo[c][1,2]oxaborol-5-yl)amino)-1-(trans-4-cyanotetrahydro-2H-pyran-3-yl)-1H-pyrazole-4-carboxamide]", "IC50": "< 10"}, {"smiles": "CC1=Cc2cc(Nc3nn([C@@H]4COCC[C@H]4C#N)cc3C(N)=O)cc(F)c2OB1O", "note": "(single isomer, unassigned) [Example 14b, 1-[trans-4-cyanotetrahydro-2H-pyran-3-yl]-3-[(8-fluoro-2-hydroxy-3-methyl-1,2-benzoxaborinin-6-yl)amino]pyrazole-4-carboxamide]", "IC50": "10 to 50"}, {"smiles": "N#CC1CCOCC1n1cc(C(N)=O)c(Nc2ccc3c(c2)B(O)OCC3)n1", "note": "(stereo not drawn) [Example 42, 1-[trans-4-cyanotetrahydro-2H-pyran-3-yl]-3-[(1-hydroxy-3,4-dihydro-2,1-benzoxaborinin-7-yl)amino]pyrazole-4-carboxamide]", "IC50": "< 10"}, {"smiles": "CC1=C(C)c2cc(Nc3nn([C@@H]4COCC[C@H]4C#N)cc3C(N)=O)cc(C)c2OB1O", "note": "(single isomer, unassigned) [Example 23b, 1-[trans-4-cyanotetrahydro-2H-pyran-3-yl]-3-[(2-hydroxy-3,4,8-trimethyl-1,2-benzoxaborinin-6-yl)amino]pyrazole-4-carboxamide]", "IC50": "> 50"}, {"smiles": "CC(C)C1=CB(O)Oc2ccc(Nc3nn([C@@H]4CCCC[C@H]4C#N)cc3C(N)=O)cc21", "note": "(relative stereo) [Example 34, 1-(trans-2-cyanocyclohexyl)-3-[(2-hydroxy-4-isopropyl-1,2-benzoxaborinin-6-yl)amino]pyrazole-4-carboxamide]", "IC50": "10 to 50"}, {"smiles": "N#CC1CCOCC1n1cc(C(N)=O)c(Nc2cc(F)c3c(c2)COB3O)n1", "note": "(stereo not drawn) [Example 38, 1-[trans-4-cyanotetrahydro-2H-pyran-3-yl]-3-[(7-fluoro-1-hydroxy-3H-2,1-benzoxaborol-5-yl)amino]pyrazole-4-carboxamide]", "IC50": "< 10"}, {"smiles": "Cc1cc(Nc2nn([C@@H]3COCC[C@H]3C#N)cc2C(N)=O)cc2c1OB(O)C=C2", "note": "(single isomer, unassigned) [Example 27b, 1-[trans-4-cyanotetrahydropyran-3-yl]-3-[(2-hydroxy-8-methyl-1,2-benzoxaborinin-6-yl)amino]pyrazole-4-carboxamide]", "IC50": "< 10"}, {"smiles": "N#C[C@@H]1CCOC[C@H]1n1cc(C(N)=O)c(Nc2cc3c(c(C(F)(F)F)c2)OB(O)C=C3)n1", "note": "(single isomer, unassigned) [Example 28b, 1-[trans-4-cyanotetrahydro-2H-pyran-3-yl]-3-[[2-hydroxy-8-(trifluoromethyl)-1,2-benzoxaborinin-6-yl]amino]pyrazole-4-carboxamide]", "IC50": "< 10"}, {"smiles": "Cc1cc(Nc2nn(C3COCCC3C#N)cc2C(N)=O)cc2c1B(O)OC2", "note": "(single isomer, unassigned) [Example 6a, 1-[trans-4-cyanotetrahydropyran-3-yl]-3-[(1-hydroxy-7-methyl-3H-2,1-benzoxaborol-5-yl)amino] pyrazole-4-carboxamide (stereoisomerone)]", "IC50": "< 10"}, {"smiles": "N#C[C@@H]1CCOC[C@H]1n1cc(C(N)=O)c(Nc2cc3c(c(OC(F)(F)F)c2)OB(O)C=C3)n1", "note": "(single isomer, unassigned) [Example 53b, 1-[trans-4-cyanotetrahydro-2H-pyran-3-yl]-3-[[2-hydroxy-8-(trifluoromethoxy)-1,2-benzoxaborinin-6-yl]amino]pyrazole-4-carboxamide]", "IC50": "< 10"}, {"smiles": "CC1(C)OB(O)c2cc(Nc3nn([C@@H]4COCC[C@H]4C#N)cc3C(N)=O)ccc21", "note": "(single isomer, unassigned) [Example 36a, 1-[trans-4-cyanotetrahydro-2H-pyran-3-yl]-3-[(1-hydroxy-3,3-dimethyl-2,1-benzoxaborol-6-yl)amino]pyrazole-4-carboxamide]", "IC50": "< 10"}]}]}
